pIC50: −log10 of the molar value. *1 amine or outer side, *2 acyl side, *3 side chain or, on linkers, in order; H or OH if unused. Where a SMILES comes first, the peptide text is derived from it. Bridges are numbered along the chain shown (N, C = ends). [ ]: non-standard residue; d: D form. The star is where a group is joined. ξ: configuration not given here. Phe(4-COOH) = N[C@@H](Cc1ccc(C(=O)O)cc1)C(=O)O; Bip = N[C@@H](Cc1ccc(-c2ccccc2)cc1)C(=O)O; Phe(3-Me) = Cc1cccc(C[C@H](N)C(=O)O)c1; βAsp = O=C(O)[C@H](CC(=O)[*:2])N[*:1]; 4Pal = N[C@@H](Cc1ccncc1)C(=O)O; Cha = N[C@@H](CC1CCCCC1)C(=O)O; Cit = NC(=O)NCCC[C@H](N)C(=O)O; Carboxymethyl = O=C(O)C*; Orn = NCCC[C@H](N)C(=O)O; Pra = C#CC[C@H](N)C(=O)O; Dab = NCC[C@H](N)C(=O)O; Dap = NC[C@H](N)C(=O)O; ξPra = C#CCC(N)C(=O)O
These compounds were tested against T1, human PD-1 / PD-L1-Ig binding on Jurkat cell line over-expressing human PD-1 (Jurkat-PD-1) (Homo sapiens, UniProt Q15116) (assay: Jurkat-PD-1 Cell Binding High-Content Screening Assay (CBA)). Conditions: Jurkat-PD-1 cells, PE-labeled PD-L1-Ig 20 nM final; read-out: Jurkat HPD1_PDL1 IC50.
T1 construct: expressed in transfected cells; host or cells: Jurkat
T1 sequence (Q15116 25-288): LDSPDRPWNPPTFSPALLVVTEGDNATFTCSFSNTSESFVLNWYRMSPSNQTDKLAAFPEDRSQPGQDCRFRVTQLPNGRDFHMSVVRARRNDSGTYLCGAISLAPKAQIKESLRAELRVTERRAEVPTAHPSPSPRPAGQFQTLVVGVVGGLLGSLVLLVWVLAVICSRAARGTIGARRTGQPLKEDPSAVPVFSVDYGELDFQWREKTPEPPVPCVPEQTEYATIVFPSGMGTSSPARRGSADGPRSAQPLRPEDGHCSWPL
Format: cell-based
Method in brief: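 Jurkat-hPD-1 cells in DMEM with 10% fetal calf serum receive test compound and are held at 37° C for 2 h. PE-labeled PD-L1-Ig is added at 20 nM final and left for 1 hour. Cells are then fixed and Hoechst-stained, and binding is measured by imaging.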
For C#CCC(NC(=O)[C@H](CCN)NC(=O)[C@@H]1CSCC(=O)N[C@@H](Cc2ccncc2)C(=O)N[C@@H](Cc2ccc(OCC(=O)O)cc2)C(=O)N[C@@H](CC(=O)O)C(=O)N[C@@H](Cc2c[nH]c3ccccc23)C(=O)N[C@@H](C(C)C)C(=O)N[C@@H](Cc2ccc(-c3ccccc3)cc2)C(=O)N[C@@H]([C@@H](C)CC)C(=O)N[C@@H](CCCN)C(=O)N[C@H](CC(C)C)C(=O)N[C@@H](CCN)C(=O)N[C@@H](CC(C)C)C(=O)N[C@@H](C(C)C)C(=O)N[C@@H]([C@@H](C)O)C(=O)N1)C(N)=O (stereo partly drawn) [Compound 1765] ({CH2CO}-[4Pal]Y(Carboxymethyl)DWV[Bip]I[Orn][dL][Dab]LVTC[Dab][ξPra]-NH2; thioether N-14), the pIC50 was 7.67.
C#CCC(NC(=O)[C@H](CCCN)NC(=O)[C@@H]1CSCC(=O)N[C@@H](Cc2ccncc2)C(=O)N[C@@H](Cc2ccc(OCC(=O)O)cc2)C(=O)N[C@@H](CC(=O)O)C(=O)N[C@@H](Cc2c[nH]c3ccccc23)C(=O)N[C@@H](C(C)C)C(=O)N[C@@H](Cc2ccc(-c3ccccc3)cc2)C(=O)N[C@@H]([C@@H](C)CC)C(=O)N[C@@H](CCCN)C(=O)N[C@H](CC(C)C)C(=O)N[C@@H](CCN)C(=O)N[C@@H](CC(C)C)C(=O)N[C@@H](C(C)C)C(=O)N[C@@H]([C@@H](C)O)C(=O)N1)C(N)=O (stereo partly drawn) [Compound 1766] ({CH2CO}-[4Pal]Y(Carboxymethyl)DWV[Bip]I[Orn][dL][Dab]LVTC[Orn][ξPra]-NH2; thioether N-14) was tested, and the pIC50 was 7.50.
With C#CCC(NC(=O)[C@H](CCCCN)NC(=O)[C@@H]1CSCC(=O)N[C@@H](Cc2ccncc2)C(=O)N[C@@H](Cc2ccc(OCC(=O)O)cc2)C(=O)N[C@@H](CC(=O)O)C(=O)N[C@@H](Cc2c[nH]c3ccccc23)C(=O)N[C@@H](C(C)C)C(=O)N[C@@H](Cc2ccc(-c3ccccc3)cc2)C(=O)N[C@@H]([C@@H](C)CC)C(=O)N[C@@H](CCCN)C(=O)N[C@H](CC(C)C)C(=O)N[C@@H](CCN)C(=O)N[C@@H](CC(C)C)C(=O)N[C@@H](C(C)C)C(=O)N[C@@H]([C@@H](C)O)C(=O)N1)C(N)=O (stereo partly drawn) [Compound 1767] ({CH2CO}-[4Pal]Y(Carboxymethyl)DWV[Bip]I[Orn][dL][Dab]LVTCK[ξPra]-NH2; thioether N-14) the pIC50 was 7.78.
C#CC[C@H](NC(=O)C[C@H](NC(=O)[C@H](CCN)NC(=O)[C@@H]1CSCC(=O)N[C@@H](Cc2ccc(OCC(=O)O)cc2)C(=O)N[C@@H](Cc2ccncc2)C(=O)N[C@@H](CC(=O)O)C(=O)N[C@@H](Cc2cccc(C)c2)C(=O)N[C@@H](C(C)C)C(=O)N[C@@H](Cc2ccc(-c3ccccc3)cc2)C(=O)N[C@@H](CCCNC(N)=O)C(=O)N[C@@H](CCCN)C(=O)N[C@H](CC(C)C)C(=O)N[C@@H](CCN)C(=O)N[C@@H](CC2CCCCC2)C(=O)N[C@@H](C(C)C)C(=O)N[C@@H]([C@@H](C)O)C(=O)N1)C(=O)O)C(N)=O [Compound 1768] ({CH2CO}-Y(Carboxymethyl)[4Pal]D[Phe(3-Me)]V[Bip][Cit][Orn][dL][Dab][Cha]VTC[Dab][βAsp][Pra]-NH2; thioether N-14) showed a pIC50 of 8.00.
C#CC[C@H](NC(=O)C[C@H](NC(=O)[C@H](CCN)NC(=O)[C@@H]1CSCC(=O)N[C@@H](Cc2ccncc2)C(=O)N[C@@H](Cc2ccc(C(=O)O)cc2)C(=O)N[C@@H](CC(=O)O)C(=O)N[C@@H](Cc2c[nH]c3ccccc23)C(=O)N[C@@H](C(C)C)C(=O)N[C@@H](Cc2ccc(-c3ccccc3)cc2)C(=O)N[C@@H]([C@@H](C)CC)C(=O)N[C@@H](CCCN)C(=O)N[C@H](CC(C)C)C(=O)N[C@@H](CCN)C(=O)N[C@@H](CC(C)C)C(=O)N[C@@H](C(C)C)C(=O)N[C@@H]([C@@H](C)O)C(=O)N1)C(=O)O)C(=O)O [Compound 1770] ({CH2CO}-[4Pal][Phe(4-COOH)]DWV[Bip]I[Orn][dL][Dab]LVTC[Dab][βAsp][Pra]-OH; thioether N-14) showed a pIC50 of 7.16.
Cc1cccc(C[C@@H]2NC(=O)[C@H](CC(=O)O)NC(=O)[C@H](Cc3ccc(OCC(=O)O)cc3)NC(=O)[C@H](CN)NC(=O)CSC[C@@H](C(N)=O)NC(=O)[C@H]([C@@H](C)O)NC(=O)[C@H](C(C)C)NC(=O)[C@H](CC3CCCCC3)NC(=O)[C@H](CCC(=O)O)NC(=O)[C@@H](CC(C)C)NC(=O)[C@H](CCCN)NC(=O)[C@H](Cc3ccc(OCC(=O)O)cc3)NC(=O)[C@H](Cc3ccc(-c4ccccc4)cc3)NC(=O)[C@H](Cc3ccc(OCC(=O)O)cc3)NC2=O)c1 [Compound 1775] ({CH2CO}-[Dap]Y(Carboxymethyl)D[Phe(3-Me)]Y(Carboxymethyl)[Bip]Y(Carboxymethyl)[Orn][dL]E[Cha]VTC-NH2; thioether N-14) was tested, and the pIC50 was 7.69.
In the case of Cc1cccc(C[C@@H]2NC(=O)[C@H](CC(=O)O)NC(=O)[C@H](Cc3ccc(OCC(=O)O)cc3)NC(=O)[C@H](CN)NC(=O)CSC[C@@H](C(N)=O)NC(=O)[C@H](CCCN)NC(=O)[C@H](C(C)C)NC(=O)[C@H](CC3CCCCC3)NC(=O)[C@H](CCN)NC(=O)[C@@H](CC(C)C)NC(=O)[C@H](CCCN)NC(=O)[C@H](Cc3ccc(OCC(=O)O)cc3)NC(=O)[C@H](Cc3ccc(-c4ccccc4)cc3)NC(=O)[C@H](Cc3ccc(OCC(=O)O)cc3)NC2=O)c1 [Compound 1779] ({CH2CO}-[Dap]Y(Carboxymethyl)D[Phe(3-Me)]Y(Carboxymethyl)[Bip]Y(Carboxymethyl)[Orn][dL][Dab][Cha]V[Orn]C-NH2; thioether N-14), the pIC50 was 7.78.
With Cc1cccc(C[C@@H]2NC(=O)[C@H](CC(=O)O)NC(=O)[C@H](Cc3ccc(OCC(=O)O)cc3)NC(=O)[C@H](CN)NC(=O)CSC[C@@H](C(N)=O)NC(=O)[C@H](CC(N)=O)NC(=O)[C@H](C(C)C)NC(=O)[C@H](CC3CCCCC3)NC(=O)[C@H](CCN)NC(=O)[C@@H](CC(C)C)NC(=O)[C@H](CCCN)NC(=O)[C@H](Cc3ccc(OCC(=O)O)cc3)NC(=O)[C@H](Cc3ccc(-c4ccccc4)cc3)NC(=O)[C@H](Cc3ccc(OCC(=O)O)cc3)NC2=O)c1 [Compound 1780] ({CH2CO}-[Dap]Y(Carboxymethyl)D[Phe(3-Me)]Y(Carboxymethyl)[Bip]Y(Carboxymethyl)[Orn][dL][Dab][Cha]VNC-NH2; thioether N-14) the pIC50 was 7.95.
For Cc1cccc(C[C@@H]2NC(=O)[C@H](CC(=O)O)NC(=O)[C@H](Cc3ccc(OCC(=O)O)cc3)NC(=O)[C@H](CN)NC(=O)CSC[C@@H](C(N)=O)NC(=O)[C@H](CC(=O)O)NC(=O)[C@H](C(C)C)NC(=O)[C@H](CC3CCCCC3)NC(=O)[C@H](CCN)NC(=O)[C@@H](CC(C)C)NC(=O)[C@H](CCCN)NC(=O)[C@H](Cc3ccc(OCC(=O)O)cc3)NC(=O)[C@H](Cc3ccc(-c4ccccc4)cc3)NC(=O)[C@H](Cc3ccc(OCC(=O)O)cc3)NC2=O)c1 [Compound 1781] ({CH2CO}-[Dap]Y(Carboxymethyl)D[Phe(3-Me)]Y(Carboxymethyl)[Bip]Y(Carboxymethyl)[Orn][dL][Dab][Cha]VDC-NH2; thioether N-14), the pIC50 was 7.85.
Work on Cc1cccc(C[C@@H]2NC(=O)[C@H](CC(=O)O)NC(=O)[C@H](Cc3ccc(OCC(=O)O)cc3)NC(=O)[C@H](CN)NC(=O)CSC[C@@H](C(N)=O)NC(=O)[C@H](CCC(N)=O)NC(=O)[C@H](C(C)C)NC(=O)[C@H](CC3CCCCC3)NC(=O)[C@H](CCN)NC(=O)[C@@H](CC(C)C)NC(=O)[C@H](CCCN)NC(=O)[C@H](Cc3ccc(OCC(=O)O)cc3)NC(=O)[C@H](Cc3ccc(-c4ccccc4)cc3)NC(=O)[C@H](Cc3ccc(OCC(=O)O)cc3)NC2=O)c1 [Compound 1782] ({CH2CO}-[Dap]Y(Carboxymethyl)D[Phe(3-Me)]Y(Carboxymethyl)[Bip]Y(Carboxymethyl)[Orn][dL][Dab][Cha]VQC-NH2; thioether N-14) yielded a pIC50 of 7.63.
Compound Cc1cccc(C[C@@H]2NC(=O)[C@H](CC(=O)O)NC(=O)[C@H](Cc3ccc(OCC(=O)O)cc3)NC(=O)[C@H](CN)NC(=O)CSC[C@@H](C(N)=O)NC(=O)[C@H]([C@@H](C)O)NC(=O)[C@H](C(C)C)NC(=O)[C@H](CC3CCCCC3)NC(=O)[C@H](CCN)NC(=O)[C@@H](CC(C)C)NC(=O)[C@H](CCCN)NC(=O)[C@H](Cc3ccc(OCC(=O)O)cc3)NC(=O)[C@H](Cc3ccc(-c4ccccc4)cc3)NC(=O)[C@H](Cc3ccc(OCC(=O)O)cc3)NC2=O)c1 [Compound 1783] ({CH2CO}-[Dap]Y(Carboxymethyl)D[Phe(3-Me)]Y(Carboxymethyl)[Bip]Y(Carboxymethyl)[Orn][dL][Dab][Cha]VTC-NH2; thioether N-14) has a pIC50 of 7.84.
For Cc1cccc(C[C@@H]2NC(=O)[C@H](CC(=O)O)NC(=O)[C@H](Cc3ccc(OCC(=O)O)cc3)NC(=O)[C@H](CN)NC(=O)CSC[C@@H](C(N)=O)NC(=O)[C@H](CCC(=O)O)NC(=O)[C@H](C(C)C)NC(=O)[C@H](CC3CCCCC3)NC(=O)[C@H](CCN)NC(=O)[C@@H](CC(C)C)NC(=O)[C@H](CCCN)NC(=O)[C@H](Cc3ccc(OCC(=O)O)cc3)NC(=O)[C@H](Cc3ccc(-c4ccccc4)cc3)NC(=O)[C@H](Cc3ccc(OCC(=O)O)cc3)NC2=O)c1 [Compound 1784] ({CH2CO}-[Dap]Y(Carboxymethyl)D[Phe(3-Me)]Y(Carboxymethyl)[Bip]Y(Carboxymethyl)[Orn][dL][Dab][Cha]VEC-NH2; thioether N-14), the pIC50 was 7.59.
Cc1cccc(C[C@@H]2NC(=O)[C@H](CC(=O)O)NC(=O)[C@H](Cc3ccc(OCC(=O)O)cc3)NC(=O)[C@H]([C@@H](C)O)NC(=O)CSC[C@@H](C(N)=O)NC(=O)[C@H](CC(N)=O)NC(=O)[C@H](C(C)C)NC(=O)[C@H](CC3CCCCC3)NC(=O)[C@H](CCN)NC(=O)[C@@H](CC(C)C)NC(=O)[C@H](CCCN)NC(=O)[C@H](Cc3ccc(OCC(=O)O)cc3)NC(=O)[C@H](Cc3ccc(-c4ccccc4)cc3)NC(=O)[C@H](Cc3ccc(OCC(=O)O)cc3)NC2=O)c1 [Compound 1797] ({CH2CO}-TY(Carboxymethyl)D[Phe(3-Me)]Y(Carboxymethyl)[Bip]Y(Carboxymethyl)[Orn][dL][Dab][Cha]VNC-NH2; thioether N-14) showed a pIC50 of 7.63.

From patent US20250163104A1, “MACROCYCLIC IMMUNOMODULATORS” (priority 2021, published 2025)
